What follows are compounds tested against T1, human S1P1 receptor (Homo sapiens, UniProt P21453) (assay: GTP γ35S binding assay for S1P1 activity). Details: membranes of cells stably expressing the S1P1 receptor.
T1 construct: expressed in transfected cells; membranes of cells stably expressing the receptor
Type: biochemical
Method: Novel compounds were synthesized and tested for S1P1 activity using the GTP γ^35S binding assay. These compounds may be assessed for their ability to activate or block activation of the human S1P1 receptor in cells stably expressing the S1P1 receptor. GTP γ^35S binding was measured in the medium containing (mM) HEPES 25, pH 7.4, MgCl2 10, NaCl 100, dithitothreitol 0.5, digitonin 0.003%, 0.2 nM GTP γ^35S, and 5 μg membrane protein in a volume of 150 μl. Test compounds were included in the concentration range from 0.08 to 5,000 nM unless indicated otherwise. Membranes were incubated with 100 μM 5′-adenylylimmidodiphosphate for 30 min, and subsequently with 10 μM GDP for 10 min on ice. Drug solutions and membrane were mixed, and then reactions were initiated by adding GTP γ^35S and continued for 30 min at 25° C. Reaction mixtures were filtered over Whatman GF/B filters under vacuum, and washed three times with 3 mL of ice-cold buffer (HEPES 25, pH7.4, MgCl2 10 and NaCl 100). Filters were dried and mixed with scintillant, and counted for ^35S activity using a 8-counter. Agonist-induced GTP γ^35S binding was obtained by subtracting that in the absence of agonist. Binding data were analyzed using a non-linear regression method. In case of antagonist assay, the reaction mixture contained 10 nM […] in the presence of test antagonist at concentrations ranging from 0.08 to 5000 nM.
Activity potency: S1P1 receptor from GTP γ^35S: nM, (EC50).

T1 sequence (P21453 whole entry): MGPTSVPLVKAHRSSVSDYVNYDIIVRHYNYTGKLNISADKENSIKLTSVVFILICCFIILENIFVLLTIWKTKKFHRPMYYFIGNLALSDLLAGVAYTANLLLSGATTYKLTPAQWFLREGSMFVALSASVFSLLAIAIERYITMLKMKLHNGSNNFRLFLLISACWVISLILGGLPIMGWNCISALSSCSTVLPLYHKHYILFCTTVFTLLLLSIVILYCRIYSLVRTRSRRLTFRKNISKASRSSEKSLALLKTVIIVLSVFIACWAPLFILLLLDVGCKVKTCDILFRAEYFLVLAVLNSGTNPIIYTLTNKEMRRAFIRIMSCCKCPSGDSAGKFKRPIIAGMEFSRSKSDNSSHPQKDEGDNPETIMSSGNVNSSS

| Structure (SMILES) | EC50 |
| --- | --- |
| CCCCCCCCCCc1ccc(CNCCCP(=O)(O)O)c2ncccc12 [Compound 1, (3-{[(5-decylquinolin-8-yl)methyl]amino}propyl)phosphonic acid] | 0.00153 µM |
| CCCCCCCCC#Cc1ccc(CNCCCP(=O)(O)O)c2ncccc12 [Compound 2, (3-{[(5-dec-1-yn-1-ylquinolin-8-yl)methyl]amino}propyl)phosphonic acid] | 0.00339 µM |
| O=P(O)(O)CCCNCc1ccc(C#CCCCCCc2ccccc2)c2cccnc12 [Compound 3, [3-({[5-(7-phenylhept-1-yn-1-yl)quinolin-8-yl]methyl}amino)propyl]phosphonic acid] | 0.094 µM |
| O=P(O)(O)CCCNCc1ccc(C#CCCCCc2ccccc2)c2cccnc12 [Compound 4, [3-({[5-(6-phenylhex-1-yn-1-yl)quinolin-8-yl]methyl}amino)propyl]phosphonic acid] | 0.204 µM |
| O=P(O)(O)CCCNCc1ccc(CCCCCCCc2ccccc2)c2cccnc12 [Compound 5, [3-({[5-(7-phenylheptyl)quinolin-8-yl]methyl}amino)propyl]phosphonic acid] | 0.173 µM |
| O=P(O)(O)CCCNCc1ccc(CCCCCCc2ccccc2)c2cccnc12 [Compound 7, [3-({[5-(6-phenylhexyl)quinolin-8-yl]methyl}amino)propyl]phosphonic acid] | 0.00545 µM |
| O=P(O)(O)CCCNCc1ccc(C#CCCCc2ccccc2)c2cccnc12 [Compound 8, [3-({[5-(5-phenylpent-1-yn-1-yl)quinolin-8-yl]methyl}amino)propyl]phosphonic acid] | 0.543 µM |
| O=P(O)(O)OCCNCc1ccc(CCCCCCc2ccccc2)c2cccnc12 [Compound 11, 2-({[5-(6-phenylhexyl)quinolin-8-yl]methyl}amino)ethyl dihydrogen phosphate] | 0.00219 µM |
| COc1cccc(CCCCC#Cc2ccc(CNCCCP(=O)(O)O)c3ncccc23)c1 [Compound 12, {3-[({5-[6-(3-methoxyphenyl)hex-1-yn-1-yl]quinolin-8-yl}methyl)amino]propyl}phosphonic acid] | 0.0183 µM |
| COc1cccc(CCCCCCc2ccc(CNCCCP(=O)(O)O)c3ncccc23)c1 [Compound 13, {3-[({5-[6-(3-methoxyphenyl)hexyl]quinolin-8-yl}methyl)amino]propyl}phosphonic acid] | 0.00768 µM |
| CCCCCCCC/C=C/c1ccc(CNCCCP(=O)(O)O)c2ccccc12 [Compound 15, {3-[({4-[(1E)-dec-1-en-1-yl]-1-naphthyl}methyl)amino]propyl}phosphonic acid] | 0.138 µM |
| O=P(O)(O)CCCNCc1ccc(C#CCCCCc2ccccc2)c2ccccc12 [Compound 16, [3-({[4-(6-phenylhex-1-yn-1-yl)-1-naphthyl]methyl}amino)propyl]phosphonic acid] | 0.00488 µM |
| O=P(O)(O)OCCNCc1ccc(CCCCCCc2ccccc2)c2ccccc12 [Compound 18, 2-({[4-(6-phenylhexyl)-1-naphthyl]methyl}amino)ethyl dihydrogen phosphate] | 0.0555 µM |
| O=P(O)(O)CCCNCc1ccc(CCCCCCc2ccccc2)c2ccccc12 [Compound 19, [3-({[4-(6-phenylhexyl)-1-naphthyl]methyl}amino)propyl]phosphonic acid] | 0.00559 µM |

Each compound was assayed on female C57BL6 mice (assay: Lymphopenia assay in mice (in vivo blood lymphocyte depletion)). Details: after 24 hours; after dosing; FIG. 1 legend.
Method: Test drugs are prepared in a solution containing 3% (w/v) 2-hydroxy propyl β-cyclodextrin (HPBCD) and 1% DMSO to a final concentration of 1 mg/ml, and subcutaneously injected to female C57BL6 mice (CHARLES RIVERS) weighing 20-25 g at the dose of 10 mg/Kg. Blood samples are obtained by puncturing the submandibular skin with a Goldenrod animal lancet at 5, 24, 48, 72, and 96 hrs post drug application. Blood is collected into microvettes (SARSTEDT) containing EDTA tripotassium salt. Lymphocytes in blood samples are counted using a HEMAVET Multispecies Hematology System, HEMAVET HV950FS (Drew Scientific Inc.). (Hale, J. et al Bioorg. & Med. Chem. Lett. 14 (2004) 3351).
A lymphopenia assay in mice, as previously described, was employed to measure the in vivo blood lymphocyte depletion after dosing Compound 5 (FIG. 1). These S1P agonists (or modulators) are useful for S1P-related diseases, and exemplified by the lymphopenia in vivo response. In general, test compounds were prepared in a solution containing 3% (w/v) 2-hydroxy propyl β-cyclodextrin (HPBCD) and 1% DMSO to a final concentration of 1 mg/ml, and subcutaneously injected to female C57BL6 mice (CHARLES RIVERS) weighing 20-25 g at the dose of 10 mg/Kg or 2 mg/Kg. […] Lymphocytes in blood samples were counted using a HEMAVET Multispecies Hematology System, HEMAVET HV950FS (Drew Scientific Inc.).

| Structure (SMILES) | lymphocyte count |
| --- | --- |
| O=P(O)(O)CCCNCc1ccc(CCCCCCCc2ccccc2)c2cccnc12 [Compound 5, [3-({[5-(7-phenylheptyl)quinolin-8-yl]methyl}amino)propyl]phosphonic acid] | lowered lymphocyte count |

Same assay, conditions: after 24 hours; subcutaneously injected, 10 mg/Kg or 2 mg/Kg; FIG. 1

| Structure (SMILES) | number of lymphocytes |
| --- | --- |
| O=P(O)(O)CCCNCc1ccc(CCCCCCCc2ccccc2)c2cccnc12 [Compound 5, [3-({[5-(7-phenylheptyl)quinolin-8-yl]methyl}amino)propyl]phosphonic acid] | < 1 10^3/μL blood |

— patent US8513418B2, “Substituted bicyclic methyl amine derivatives as sphingosine-1 phosphate receptors modulators” (Allergan, Inc., priority 2011, dated 2013)
